Experimental data as given in PMC8288134, “Synthesis, potential antitumor activity, cell cycle analysis, and multitarget mechanisms of novel hydrazones incorporating a 4-methylsulfonylbenzene scaffold: a molecular docking study” (Journal of Enzyme Inhibition and Medicinal Chemistry, 2021).
Where two headings read alike, the source gives them in different places.

How the values were obtained:
IGROV1 = test: NCI antitumor screen (SRB); type: cell-based; conditions: Homo sapiens; for inhibition at 10 µM: IGROV-1, one dose 10 µM, read-out: Growth inhibition percentage (GI%)
M14 = test: NCI antitumor screen (SRB); type: cell-based; conditions: Homo sapiens; for inhibition at 10 µM: one dose 10 µM, read-out: Growth inhibition percentage (GI%)
MDA-MB-468 [1] = test: NCI antitumor screen (SRB); type: cell-based; conditions: Homo sapiens; for inhibition at 10 µM: one dose 10 µM, read-out: Growth inhibition percentage (GI%)
COLO 205 [2] = test: NCI antitumor screen (SRB); type: cell-based; conditions: Homo sapiens; for inhibition at 10 µM: one dose 10 µM, read-out: Growth inhibition percentage (GI%)
NCI-H226 = test: NCI antitumor screen (SRB); type: cell-based; conditions: Homo sapiens; for inhibition at 10 µM: one dose 10 µM, read-out: Growth inhibition percentage (GI%)
U251 = test: NCI antitumor screen (SRB); type: cell-based; conditions: Homo sapiens; for inhibition at 10 µM: U-251, one dose 10 µM, read-out: Growth inhibition percentage (GI%)
EKVX [3] = test: NCI antitumor screen (SRB); type: cell-based; conditions: Homo sapiens; for inhibition at 10 µM: one dose 10 µM, read-out: Growth inhibition percentage (GI%)
[4] = test system: full panel of 59 cancer cell lines; test: NCI antitumor screen, full panel; conditions: for PCE: positive cytotoxic effect (number of cell lines with GI 10 to 100% / total number of cell lines): one dose 10 µM
CAKI-1 = test: NCI antitumor screen (SRB); type: cell-based; conditions: Homo sapiens; for inhibition at 10 µM: one dose 10 µM, read-out: Growth inhibition percentage (GI%)
MDA-MB-231/ATCC = test: NCI antitumor screen (SRB); type: cell-based; conditions: Homo sapiens; for inhibition at 10 µM: one dose 10 µM, read-out: Growth inhibition percentage (GI%)
SN12C = test: NCI antitumor screen (SRB); type: cell-based; conditions: Homo sapiens; for inhibition at 10 µM: one dose 10 µM, read-out: Growth inhibition percentage (GI%)
OVCAR-8 = test: NCI antitumor screen (SRB); type: cell-based; conditions: Homo sapiens; for inhibition at 10 µM: one dose 10 µM, read-out: Growth inhibition percentage (GI%)
K-562 = test: NCI antitumor screen (SRB); type: cell-based; conditions: Homo sapiens
SR [5] = test: NCI antitumor screen (SRB); type: cell-based; conditions: Homo sapiens; for inhibition at 10 µM: one dose 10 µM, read-out: Growth inhibition percentage (GI%)
SK-MEL-28 = test: NCI antitumor screen (SRB); type: cell-based, human; conditions: for inhibition at 10 µM: read-out: Growth inhibition percentage (GI%)
UO-31 = test system: UO-31; design: method as in https://dtp.cancer.gov/dtpstandard/dwindex/index.jsp; conditions: reference drugs, ref https://dtp.cancer.gov/dtpstandard/dwindex/index.jsp; cited from earlier work
MDA-MB-468 [6] = test system: MDA-MB-468; design: method as in https://dtp.cancer.gov/dtpstandard/dwindex/index.jsp; conditions: reference drugs, ref https://dtp.cancer.gov/dtpstandard/dwindex/index.jsp; cited from earlier work
T-47D = test system: T-47D; design: method as in https://dtp.cancer.gov/dtpstandard/dwindex/index.jsp; conditions: reference drugs, ref https://dtp.cancer.gov/dtpstandard/dwindex/index.jsp; cited from earlier work
[7] = test system: renal cancer tumour cell lines; conditions: cited from earlier work
HOP-92 = test system: HOP-92; design: method as in https://dtp.cancer.gov/dtpstandard/dwindex/index.jsp; conditions: reference drugs, ref https://dtp.cancer.gov/dtpstandard/dwindex/index.jsp; cited from earlier work
SF-268 = test system: SF-268; design: method as in https://dtp.cancer.gov/dtpstandard/dwindex/index.jsp; conditions: reference drugs, ref https://dtp.cancer.gov/dtpstandard/dwindex/index.jsp; cited from earlier work
[8] = test system: breast cancer tumour cell lines; conditions: cited from earlier work
SW-620 = test system: SW-620; design: method as in https://dtp.cancer.gov/dtpstandard/dwindex/index.jsp; conditions: reference drugs, ref https://dtp.cancer.gov/dtpstandard/dwindex/index.jsp; cited from earlier work
[9] = test system: full panel of 59 cancer cell lines; conditions: cited from earlier work
COLO 205 [10] = test system: COLO 205; design: method as in https://dtp.cancer.gov/dtpstandard/dwindex/index.jsp; conditions: reference drugs, ref https://dtp.cancer.gov/dtpstandard/dwindex/index.jsp; cited from earlier work
[11] = test system: ovarian cancer tumour cell lines; conditions: cited from earlier work
MCF7 = test system: MCF7; design: method as in https://dtp.cancer.gov/dtpstandard/dwindex/index.jsp; conditions: reference drugs, ref https://dtp.cancer.gov/dtpstandard/dwindex/index.jsp; cited from earlier work
[12] = test system: melanoma tumour cell lines; conditions: cited from earlier work
[13] = test system: CNS cancer tumour cell lines; conditions: cited from earlier work
SK-MEL-2 = test system: SK-MEL-2; design: method as in https://dtp.cancer.gov/dtpstandard/dwindex/index.jsp; conditions: reference drugs, ref https://dtp.cancer.gov/dtpstandard/dwindex/index.jsp; cited from earlier work
786-0 = test system: 786-0; design: method as in https://dtp.cancer.gov/dtpstandard/dwindex/index.jsp; conditions: reference drugs, ref https://dtp.cancer.gov/dtpstandard/dwindex/index.jsp; cited from earlier work
SK-OV-3 = test system: SK-OV-3; design: method as in https://dtp.cancer.gov/dtpstandard/dwindex/index.jsp; conditions: reference drugs, ref https://dtp.cancer.gov/dtpstandard/dwindex/index.jsp; cited from earlier work
SR [14] = test system: SR; design: method as in https://dtp.cancer.gov/dtpstandard/dwindex/index.jsp; conditions: reference drugs, ref https://dtp.cancer.gov/dtpstandard/dwindex/index.jsp; cited from earlier work
EKVX [15] = test system: EKVX; design: method as in https://dtp.cancer.gov/dtpstandard/dwindex/index.jsp; conditions: reference drugs, ref https://dtp.cancer.gov/dtpstandard/dwindex/index.jsp; cited from earlier work
HCT-116 = test system: HCT-116; design: method as in https://dtp.cancer.gov/dtpstandard/dwindex/index.jsp; conditions: reference drugs, ref https://dtp.cancer.gov/dtpstandard/dwindex/index.jsp; cited from earlier work
[16] = five concentrations 0.01-100 µM
[17] = Homo sapiens, SK-MEL-28, SK-MEL-28, one dose 10 µM
[18] = K562, read-out: Growth inhibition percentage (GI%)
[19] = read-out: GI50 (subpanel average), reference drugs, ref https://dtp.cancer.gov/dtpstandard/dwindex/index.jsp
[20] = read-out: LC50 (subpanel average), reference drugs, ref https://dtp.cancer.gov/dtpstandard/dwindex/index.jsp
[21] = reference drugs, ref https://dtp.cancer.gov/dtpstandard/dwindex/index.jsp

Structure (SMILES): CCN(CC)c1ccc(/C=N/NC(=O)c2ccc(S(C)(=O)=O)cc2)c(O)c1 [Compound 20]
- GI50 (IGROV1; IGROV-1, five concentrations 0.01-100 µM): 0.196 µM
- inhibition at 10 µM (IGROV1): 78.8%
- GI50 (M14; [16]): 0.171 µM
- inhibition at 10 µM (M14): 96.6%
- GI50 (MDA-MB-468 [1]; [16]): 0.203 µM
- inhibition at 10 µM (MDA-MB-468 [1]): 98.8%
- GI50 (COLO 205 [2]; [16]): 0.269 µM
- inhibition at 10 µM (COLO 205 [2]): 91.4%
- GI50 (NCI-H226; [16]): 0.073 µM
- inhibition at 10 µM (NCI-H226): 77.4%
- GI50 (U251; U-251, five concentrations 0.01-100 µM): 0.137 µM
- inhibition at 10 µM (U251): 79.4%
- GI50 (EKVX [3]; [16]): 0.162 µM
- inhibition at 10 µM (EKVX [3]): 84.5%
- GI50 ([4]; Homo sapiens, read-out: GI50 (range over cell lines)): 0.063 to 11.7 µM
- GI50 ([4]; Homo sapiens, read-out: GI50 MG-MID (full panel mean-graph midpoint)): 0.26 µM
- CC50 ([4]; Homo sapiens, read-out: LC50 MG-MID (full panel mean-graph midpoint)): > 100 µM
- TGI MG-MID (full panel mean-graph midpoint) ([4]; full panel): 46.8 µM
- PCE: positive cytotoxic effect (number of cell lines with GI 10 to 100% / total number of cell lines) [4]: 59/59
- fold more potent than 5-Fu ([4]; ratio of GI50 MG_MID): ~3 fold
- fold more potent than celecoxib ([4]; ratio of GI50 MG_MID): ~65 fold
- fold more potent than erlotinib ([4]; ratio of GI50 MG_MID): ~30 fold
- fold more potent than gefitinib and sorafenib ([4]; ratio of GI50 MG_MID): ~9 fold
- GI50 (CAKI-1; [16]): 0.104 µM
- inhibition at 10 µM (CAKI-1): 79.6%
- GI50 (MDA-MB-231/ATCC; [16]): 0.308 µM
- inhibition at 10 µM (MDA-MB-231/ATCC): 56.8%
- GI50 (SN12C; [16]): 0.354 µM
- inhibition at 10 µM (SN12C): 68.8%
- GI50 (OVCAR-8; [16]): 0.25 µM
- inhibition at 10 µM (OVCAR-8): 83.2%
- GI50 (K-562; K562, K-562, five concentrations 0.01-100 µM): 0.604 µM
- inhibition at 10 µM (K-562; K562, K-562, one dose 10 µM, read-out: Growth inhibition percentage (GI%)): 87.6%
- GI50 (SR [5]; [16]): 0.063 µM
- inhibition at 10 µM (SR [5]): 91%
- inhibition at 10 µM (SK-MEL-28; [17]): 72.9%
- GI50 (SK-MEL-28; Homo sapiens, SK-MEL-28, five concentrations 0.01-100 µM): 0.34 µM
- Growth inhibition percentage (GI%) (SK-MEL-28; SK-MEL-28, one dose 10 µM): 72.8%

Structure (SMILES): Cc1ccc(C=NNC(=O)c2ccc(S(C)(=O)=O)cc2)cc1 [Compound 9, N'-(4-Methylbenzylidene)-4-(methylsulfonyl)benzohydrazide]
- inhibition at 10 µM (IGROV1): 12.3%
- inhibition at 10 µM (M14): < 10%
- inhibition at 10 µM (MDA-MB-468 [1]): 21.5%
- inhibition at 10 µM (COLO 205 [2]): < 10%
- inhibition at 10 µM (NCI-H226): < 10%
- inhibition at 10 µM (U251): 13.7%
- inhibition at 10 µM (EKVX [3]): < 10%
- PCE: positive cytotoxic effect (number of cell lines with GI 10 to 100% / total number of cell lines) [4]: 27/59
- inhibition at 10 µM (CAKI-1): 25%
- inhibition at 10 µM (MDA-MB-231/ATCC): < 10%
- inhibition at 10 µM (SN12C): < 10%
- inhibition at 10 µM (OVCAR-8): < 10%
- inhibition at 10 µM (K-562; [18]): 44.1%
- inhibition at 10 µM (SR [5]): 43.8%
- inhibition at 10 µM (SK-MEL-28; [17]): < 10%

Structure (SMILES): CS(=O)(=O)c1ccc(C(=O)NN=Cc2cccc3ccccc23)cc1 [Compound 6, 4-(Methylsulfonyl)-N'-(naphthalen-1-ylmethylene)benzohydrazide]
- inhibition at 10 µM (IGROV1): 36.8%
- inhibition at 10 µM (M14): 33.2%
- inhibition at 10 µM (MDA-MB-468 [1]): 25.8%
- inhibition at 10 µM (COLO 205 [2]): 14.3%
- inhibition at 10 µM (NCI-H226): 16.3%
- inhibition at 10 µM (U251): 23.7%
- inhibition at 10 µM (EKVX [3]): 12.6%
- PCE: positive cytotoxic effect (number of cell lines with GI 10 to 100% / total number of cell lines) [4]: 52/59
- inhibition at 10 µM (CAKI-1): 32.8%
- inhibition at 10 µM (MDA-MB-231/ATCC): < 10%
- inhibition at 10 µM (SN12C): 12.6%
- inhibition at 10 µM (OVCAR-8): 16.2%
- inhibition at 10 µM (K-562; [18]): 72.2%
- inhibition at 10 µM (SR [5]): 67.5%
- inhibition at 10 µM (SK-MEL-28; Homo sapiens, SK-MEL-28, one dose 10 µM): 10.6%

Structure (SMILES): C#Cc1cccc(Nc2ncnc3cc(OCCOC)c(OCCOC)cc23)c1 [Erlotinib, erlotinib]
- GI50 (UO-31): 1 µM
- GI50 (MDA-MB-468 [6]): 0.126 µM
- GI50 (T-47D): 3.98 µM
- GI50 [7, 19]: 2.46 µM
- CC50 [7, 20]: 89.2 µM
- TGI (subpanel average) [7, 21]: 42.59 µM
- GI50 (HOP-92): 3.98 µM
- GI50 (SF-268): 15.8 µM
- GI50 [8, 19]: 24.7 µM
- CC50 [8, 20]: 96.4 µM
- GI50 (SW-620): 79.4 µM
- GI50 ([9]; read-out: GI50 MG-MID (full panel mean-graph midpoint), reference drugs, ref https://dtp.cancer.gov/dtpstandard/dwindex/index.jsp): 7.68 µM
- CC50 ([9]; read-out: LC50 MG-MID (full panel mean-graph midpoint), reference drugs, ref https://dtp.cancer.gov/dtpstandard/dwindex/index.jsp): 95.6 µM
- TGI MG-MID (full panel mean-graph midpoint) [9, 21]: 66.3 µM
- GI50 (COLO 205 [10]): 50.1 µM
- GI50 [11, 19]: 5.52 µM
- CC50 [11, 20]: 97.1 µM
- TGI (subpanel average) [11, 21]: 74.41 µM
- GI50 (MCF7): 100 µM
- GI50 [12, 19]: 23.7 µM
- CC50 [12, 20]: 93.3 µM
- TGI (subpanel average) [12, 21]: 77.89 µM
- GI50 [13, 19]: 17 µM
- CC50 [13, 20]: > 100 µM
- TGI (subpanel average) [13, 21]: 82.11 µM
- GI50 (SK-MEL-2): 6.31 µM
- GI50 (786-0): 10 µM
- GI50 (SK-OV-3): 0.5 µM
- GI50 (SR [14]): 10 µM
- GI50 (EKVX [15]): 0.199 µM
- GI50 (HCT-116): 6.31 µM
